From patent US12077483B2, “Modified amine lipids” (Intellia Therapeutics, Inc., priority 2018, dated 2024)

Experiments:
[1] = pKa of amine lipid by TNS fluorescence; format: physicochemical; conditions: probe TNS (6-(p-toluidino)-2-naphthalenesulfonic acid sodium salt), unformulated amine lipid in ethanol, sodium phosphate buffers -9.0
Procedure, shortened: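 pKa derived from a sigmoidal fit of normalized TNS fluorescence (321 nm excitation, 448 nm emission) versus pH. Lipid from ethanol stock diluted to about 100 μM final in 0.1 M phosphate buffers, pH 4.5–9.0.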

TTR in HUH7 cells = experiment: In vitro editing in HUH7 cells, LNP with Cas9 mRNA and sgRNA G000502, NGS; format: cell-based, human; conditions: Table 14; 2000 ng RNA per well, cells harvested 6 hours post-transfection, biological duplicate, G000502 target locus
Procedure: A series of compounds based on Compound 46 that vary by the inclusion of a C4-12 alkyl at the R^3 position of Formula (IA) (as illustrated in FIG. 13A) were tested for in vitro editing. The human hepatocellular carcinoma cell line […] (Japanese Collection of Research Bioresources Cell Bank, Cat. JCRB0403) was cultured in DMEM media supplemented with 10% fetal bovine serum and 1% Penicillin-Streptomycin. Cells were plated at a density of 20,000 cells/well in a 96-well plate 24 hours prior to transfection (˜80% confluent at time of transfection). The LNPs were formulated at a 1:2 w/w ratio of sgRNA and Cas9 mRNA using the cross flow procedure with lipid molar compositions as described in Table 13 at an N/P ratio of 6.0. LNP compositions were analyzed for average particle size, polydispersity (pdi), total RNA content and encapsulation efficiency of RNA as described in Example 115. Analysis of average particle size, polydispersity (PDI), total RNA content and encapsulation efficiency of RNA are shown in Table 13. LNPs were diluted into media, incubated for 5 minutes at 37 C and pipetted onto cells at a dose of 2000 ng RNA per well. Each condition was assayed in biological duplicate. Cells were harvested post-transfection at 6 hours. Genomic DNA was extracted using 50 μL/well BuccalAmp DNA Extraction solution (Epicentre, Cat. QE09050) according to manufacturer's protocol. All DNA samples were subjected to PCR and subsequent NGS analysis for editing at the G000502 target locus, as described above. As shown in Table 14 and FIG. 13B, all compounds tested were efficacious for in vitro editing.

[2] = LNP average particle size and polydispersity by dynamic light scattering; format: physicochemical; conditions: Table 13; LNP sgRNA:Cas9 mRNA 1:2 w/w, N/P 6.0
Procedure, shortened: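 LNPs were diluted in PBS to a count rate of about 200-400 kcps and measured by DLS on a Zetasizer. Size is the intensity-weighted Z-average diameter, reported with number-average diameter, and the polydispersity index describes the spread of sizes around the mean.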

[3] = RNA encapsulation efficiency of LNP (Ribogreen fluorescence assay); format: physicochemical; conditions: Table 13; LNP sgRNA:Cas9 mRNA 1:2 w/w, N/P 6.0
Procedure, shortened: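 LNP samples diluted in 1× TE with or without 0.2% Triton-X 100 for total or free RNA, stained ~10 min at room temperature in the dark with RiboGreen; fluorescence ex 488/em 525 nm against RNA standard curves. Encapsulation efficiency = (Total RNA−Free RNA)/Total RNA.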

mouse TTR = experiment: Serum TTR ELISA in mice after LNP delivery; format: in vivo; conditions: mouse serum, relative to TSS control of same experiment
Procedure, shortened: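 Mouse TTR in serum was quantified by ELISA (samples diluted e.g. 10,000- and/or 2,500-fold) 6–7 days after dosing CD-1 females with LNP, typically 0.1 mpk. Values are reported relative to vehicle-treated controls (%).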

Row | Compound | pKa [1] | Editing (TTR in HUH7 cells) [%] | Number Average [nm] [2] [nm] | PDI [2] | Z-Ave Size (nm) [2] [nm] | % E [3] [%] | Serum TTR % TSS (mouse TTR; dose 0.03 mpk) [% TSS] | Serum TTR % TSS (mouse TTR; dose 0.1 mpk) [% TSS]
1 | CCCCC/C=C\C/C=C\CCCCCCCC(=O)OCC(COC(=O)CCCCCCC/C=C\C/C=C\CCCCC)OC(=O)CCC(CCCCCCCCCCCC)OC(=O)NCCN1CCCC1 (stereo not shown) [Compound 46, 2-((4-(((2-(pyrrolidin-1l-yl)ethyl)carbamoyl)oxy)hexadecanoyl)oxy)propane-1,3-diyl (9Z,9′Z,12Z,12′Z)-bis(octadeca-9,12-dienoate)] | 6.16 | 63.7 | 76.76 | 0.003 | 94.54 | 99 | – | –
2 | CCCCC/C=C\C/C=C\CCCCCCCC(=O)OCC(COC(=O)CCCCCCC/C=C\C/C=C\CCCCC)OC(=O)CCC(CCCCCCC)OC(=O)NCCN1CCCC1 (stereo not shown) [Compound 76, 2-((4-(((2-(pyrrolidin-1l-yl)ethyl)carbamoyl)oxy)undecanoyl)oxy)propane-1,3-diyl (9Z,9′Z,12Z,12′Z)-bis(octadeca-9,12-dienoate)] | 6.74 | 61.2 | – | – | – | – | 69.72 | 12.79
3 | CCCCC/C=C\C/C=C\CCCCCCCC(=O)OCC(COC(=O)CCCCCCC/C=C\C/C=C\CCCCC)OC(=O)CCC(CCCC)OC(=O)NCCN1CCCC1 (stereo not shown) [Compound 85, 2-((4-(((2-(pyrrolidin-1-yl)ethyl)carbamoyl)oxy)octanoyl)oxy)propane-1,3-diyl (9Z,9′Z,12Z,12′Z)-bis(octadeca-9,12-dienoate)] | 7.02 | 66.4 | 93.05 | 0.045 | 117.1 | 96 | – | –
